This is an account of results in ChEMBL document CHEMBL2424552, “Cytotoxic effect of novel dehydroepiandrosterone derivatives on different cancer cell lines” (2013).

What all share (type): functional
For one experiment, the system named is MCF7. Description: Growth inhibition of human MCF7 cells at 50 uM after 48 hrs by SRB assay relative to control. The note with it: MCF7, 48 h, read-out: GI. Background: Sulforhodamine B stains cellular protein and so reports cell mass.
In the next experiment the test system is PC-3. The experiment is described as follows: Growth inhibition of human PC3 cells at 50 uM after 48 hrs by SRB assay relative to control. To be noted: PC-3, 48 h, read-out: GI.
The subject of another experiment is SK-LU-1. Description: Growth inhibition of human SKLU1 cells at 50 uM after 48 hrs by SRB assay relative to control. To be noted: SK-LU-1, 48 h, read-out: GI.

As for `C[C@]12CC[C@H](OC(=O)c3ccc(F)cc3)CC1=CC[C@@H]1[C@@H]2CC[C@]2(C)C(n3cccn3)=C(C=O)C[C@@H]12`, the inhibition of growth at 50 µM came to 50.7% with MCF7, 20.5% in the experiment on PC-3 and 5.5% in the experiment with SK-LU-1.
On to `C[C@]12CC[C@H](OC(=O)c3ccc(C#N)cc3)CC1=CC[C@@H]1[C@@H]2CC[C@]2(C)C(n3cncn3)=C(C=O)C[C@@H]12`, for which the inhibition of growth at 50 µM in the experiment on MCF7 was 100%; in the experiment with PC-3 it was 100%; in the experiment with SK-LU-1, 89.9%.
`C[C@]12CC[C@H](OC(=O)C3CCC3)CC1=CC[C@@H]1[C@@H]2CC[C@]2(C)C(n3cncn3)=C(C=O)C[C@@H]12`: the figures for the inhibition of growth at 50 µM in the experiment on MCF7, with PC-3 and with SK-LU-1 were 16.5%, 0% and 27%, respectively.
The like results for `C[C@]12CC[C@H](O)CC1=CC[C@@H]1[C@@H]2CC[C@]2(C)C(n3cccn3)=C(C=O)C[C@@H]12` were, in that order, 41.6%, 100% and 100%.
For the compound `C[C@]12CC[C@H](OC(=O)c3ccc(C(F)(F)F)cc3)CC1=CC[C@@H]1[C@@H]2CC[C@]2(C)C(n3cccn3)=C(C=O)C[C@@H]12`, the figures for the inhibition of growth at 50 µM in the experiment on MCF7, in the experiment on PC-3 and in the experiment on SK-LU-1 were 0%, 78.2% and 73.3%, respectively.
The like results for `C[C@]12CC[C@H](OC(=O)C3CCCCCC3)CC1=CC[C@@H]1[C@@H]2CC[C@]2(C)C(n3cncn3)=C(C=O)C[C@@H]12` were, in that order, 78%, 36.8% and 94.7%.
The like results for `COc1ccc(C(=O)O[C@H]2CC[C@@]3(C)C(=CC[C@@H]4[C@@H]3CC[C@]3(C)C(n5cccn5)=C(C=O)C[C@@H]43)C2)cc1` were, in that order, 100%, 51.5% and 80%.
Taken in the same sequence, the figures for `C[C@]12CC[C@H](OC(=O)C3CCCC3)CC1=CC[C@@H]1[C@@H]2CC[C@]2(C)C(n3cncn3)=C(C=O)C[C@@H]12` were 0%, 23.8% and 0%.
As for `C[C@]12CC[C@H](OC(=O)C3CCCCC3)CC1=CC[C@@H]1[C@@H]2CC[C@]2(C)C(n3cncn3)=C(C=O)C[C@@H]12`, the results for the inhibition of growth at 50 µM in the experiment on MCF7, with PC-3 and in the experiment on SK-LU-1 were 11%, 0% and 24.9%, respectively.
The like results for `C[C@]12CC[C@H](OC(=O)c3ccc(I)cc3)CC1=CC[C@@H]1[C@@H]2CC[C@]2(C)C(n3cccn3)=C(C=O)C[C@@H]12` were, in that order, 96.8%, 58.4% and 93.5%.
On to `CC(=O)N1CCN(c2ccc(OCC3COC(Cn4ccnc4)(c4ccc(Cl)cc4Cl)O3)cc2)CC1` (centres undefined) [KETOCONAZOLE], for which the inhibition of growth at 50 µM worked out at 95.2% in the experiment with MCF7, 88.5% with PC-3 and 73.4% in the experiment with SK-LU-1.
Taken in the same sequence, the figures for `C[C@]12CC[C@H](OC(=O)c3ccccc3)CC1=CC[C@@H]1[C@@H]2CC[C@]2(C)C(n3cccn3)=C(C=O)C[C@@H]12` were 32.6%, 31.4% and 5.8%.
The like results for `C[C@]12CC[C@H](OC(=O)c3ccc(Br)cc3)CC1=CC[C@@H]1[C@@H]2CC[C@]2(C)C(n3cccn3)=C(C=O)C[C@@H]12` were, in that order, 18.5%, 3.7% and 17.4%.
Taken in the same sequence, the figures for `COc1ccc(C(=O)O[C@H]2CC[C@@]3(C)C(=CC[C@@H]4[C@@H]3CC[C@]3(C)C(n5cncn5)=C(C=O)C[C@@H]43)C2)cc1` were 23%, 0% and 9.2%.
As for `C[C@]12CC[C@H](OC(=O)c3ccccc3)CC1=CC[C@@H]1[C@@H]2CC[C@]2(C)C(n3cncn3)=C(C=O)C[C@@H]12`, the inhibition of growth at 50 µM in the experiment on MCF7 worked out at 33.5%; with PC-3, 21.8%; in the experiment on SK-LU-1 it was 39.7%.
The like results for `C[C@]12CC[C@H](OC(=O)c3ccc(C(F)(F)F)cc3)CC1=CC[C@@H]1[C@@H]2CC[C@]2(C)C(n3cncn3)=C(C=O)C[C@@H]12` were, in that order, 100%, 100% and 89.1%.
`C[C@]12CC[C@H](OC(=O)C3CC3)CC1=CC[C@@H]1[C@@H]2CC[C@]2(C)C(n3cncn3)=C(C=O)C[C@@H]12`: the figures for the inhibition of growth at 50 µM in the experiment with MCF7, in the experiment with PC-3 and in the experiment with SK-LU-1 were 100%, 88.7% and 100%, respectively.
Take `C[C@]12CC[C@H](OC(=O)c3ccc(Cl)cc3)CC1=CC[C@@H]1[C@@H]2CC[C@]2(C)C(n3cccn3)=C(C=O)C[C@@H]12`: the inhibition of growth at 50 µM with MCF7 is 32.4%; in the experiment on PC-3, 24.6%; in the experiment with SK-LU-1, 20.7%.
Turning to `C[C@]12CC[C@H](OC(=O)c3ccc(C#N)cc3)CC1=CC[C@@H]1[C@@H]2CC[C@]2(C)C(n3cccn3)=C(C=O)C[C@@H]12`, the inhibition of growth at 50 µM amounted to 81.2% with MCF7, 30.4% in the experiment with PC-3 and 22.5% in the experiment on SK-LU-1.
Taken in the same sequence, the figures for `C[C@]12CC[C@H](OC(=O)c3ccc([N+](=O)[O-])cc3)CC1=CC[C@@H]1[C@@H]2CC[C@]2(C)C(n3cccn3)=C(C=O)C[C@@H]12` were 20.2%, 16.7% and 7.5%.
For the compound `Cc1ccc(C(=O)O[C@H]2CC[C@@]3(C)C(=CC[C@@H]4[C@@H]3CC[C@]3(C)C(n5cncn5)=C(C=O)C[C@@H]43)C2)cc1`, the inhibition of growth at 50 µM was determined as 48.7% in the experiment on MCF7, 3.1% with PC-3 and 68% with SK-LU-1.
The like results for `C[C@]12CC[C@H](OC(=O)c3ccc([N+](=O)[O-])cc3)CC1=CC[C@@H]1[C@@H]2CC[C@]2(C)C(n3cncn3)=C(C=O)C[C@@H]12` were, in that order, 100%, 85.7% and 100%.
The like results for `Cc1ccc(C(=O)O[C@H]2CC[C@@]3(C)C(=CC[C@@H]4[C@@H]3CC[C@]3(C)C(n5cccn5)=C(C=O)C[C@@H]43)C2)cc1` were, in that order, 0%, 0% and 8.5%.
